# Patent US20080293771A1, “AZACYCLYLBENZAMIDE DERIVATIVES AS HISTAMINE-3 ANTAGONISTS” (Wyeth, priority 2007, published 2008)
# Counter-ions that a name gives are not always drawn.
row,SMILES,melting point [°C]
1,"CC(C)N1CC[C@@H](N(C)C(=O)c2ccc(-n3ncc4ccccc43)cc2)C1 (as salt: hydrochloride) [Example 64, 4-(1H-indazol-1-yl)-N-[(3R)-1-isopropylpyrrolidin-3-yl]-N-methylbenzamide]",175 to 177
2,"CCN(C(=O)c1ccc(-n2c(C)nc3ccccc32)cc1)[C@@H]1CCNC1 (as salt: hydrochloride) [Example 138, (R)—N-ethyl-4-(2-methyl-1H-benzo[d]imidazol-1-yl)-N-(pyrrolidin-3-yl)benzamide hydrochloride]",174 to 176
3,"Cc1nc2ccccc2n1-c1ccc(C(=O)N[C@@H]2CCN(C3CCCCC3)C2)cc1 (as salt: hydrochloride) [Example 137, N-[(3R)-1-cyclohexylpyrrolidin-3-yl]-4-(2-methyl-1H-benzimidazol-1-yl)benzamide]",194 to 196
4,"COc1cc(C(=O)N(C)C2CCN(C(C)C)CC2)ccc1-n1c(C)nc2ccccc21 (as salt: hydrochloride) [Example 125, 3-methoxy-N-methyl-4-(2-methyl-1H-benzimidazol-1-yl)-N-[1-(1-methylethyl)piperidin-4-yl]benzamide]",250 to 252
5,"CC(C)N1CC[C@@H](N(C)C(=O)c2ccc(Cn3ncc4ccccc43)cc2)C1 (as salt: hydrochloride) [Example 76, 4-(1H-indazol-1-ylmethyl)-N-[(3R)-1-isopropylpyrrolidin-3-yl]-N-methylbenzamide]",156 to 158
6,"Cc1nc2ccccc2n1Cc1ccc(C(=O)N(C)[C@@H]2CCNC2)cc1 (as salt: hydrochloride) [Example 35, N-Methyl-4-[(2-methylbenzimidazol-1-yl)methyl]-N—(R)-pyrrolidin-3-yl-benzamide Hydrochloride]",126 to 128
7,"COc1cc(-n2c(C)nc3ccccc32)ccc1C(=O)N(C)[C@@H]1CCN(C2CCC2)C1 (as salt: hydrochloride) [Example 112, (R)—N-(1-cyclobutylpyrrolidin-3-yl)-2-methoxy-N-methyl-4-(2-methyl-1H-benzo[d]imidazol-1-yl)benzamide]",202 to 204
8,"Cc1cc(C(=O)N(C)[C@@H]2CCN(C(C)C)C2)ccc1-n1c(C)nc2ccccc21 (as salt: hydrochloride) [Example 107, N,3-dimethyl-4-(2-methyl-1H-benzimidazol-1-yl)-N-[(3R)-1-(1-methylethyl)pyrrolidin-3-yl]benzamide]",183 to 185

# Continued, values first:
row,melting point [°C],SMILES
1,184 to 185,Cc1nc2ccccc2n1-c1ccc(C(=O)N(C)[C@@H]2CCN(CC3CCCCC3)C2)cc1 (as salt: hydrochloride)
2,188 to 190,"Cc1nc2ccccc2n1Cc1ccc(C(=O)N(C)[C@@H]2CCN(C3CCCCC3)C2)cc1 (as salt: hydrochloride) [Example 40, N-[(3R)-1-cyclohexylpyrrolidin-3-yl]-N-methyl-4-[(2-methyl-1H-benzimidazol-1-yl)methyl]benzamide]"
3,213 to 215,"CC(C)N1CCC(N(C)C(=O)c2ccc(Cn3cccn3)cc2)CC1 (as salt: hydrochloride) [Example 91, N-methyl-N-[1-(1-methylethyl)piperidin-4-yl]-4-(1H-pyrazol-1-ylmethyl)benzamide]"
4,195 to 196,Cc1nc2ccccc2n1-c1ccc(C(=O)N(C)[C@H]2CCN(C3CCCCC3C)C2)cc1 (some centres unmarked) (as salt: hydrochloride)
5,272 to 273,"CN(C(=O)c1ccc(-n2cccn2)cc1)C1CCN(C2CCC2)CC1 (as salt: hydrochloride) [Example 86, N-(1-cyclobutylpiperidin-4-yl)-N-methyl-4-(1H-pyrazol-1-yl)benzamide]"
6,205 to 207,Cc1nc2ccccc2n1-c1ccc(C(=O)N(C)[C@@H]2CCN(C3CC4CCC3C4)C2)cc1 (some centres unmarked) (as salt: hydrochloride)
